Consider 5 molecules from ChEMBL document CHEMBL1201862, “PubChem BioAssay data set” (2004).

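These data come from cells grown in 96-well plates and exposed to compound for 48 hours at five concentrations. GI50 = concentration required for 50% inhibition of growth.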 Activity calls are given as the source filed them. Rule as the data show it: active = GI50 up to about 1.1 µM and inactive = higher.

Holding throughout (experiment): NCI tumour cell line growth inhibition, 48 h
The test system of test [1] is SK-MEL-28.
Test [2] deals with HL-60.
Test [3] has as its system UACC-257.
Test [4] concerns HCT-15.
In test [5] the test system is KM12.
Test [6] concerns U-251.
In test [7] the test system is NCI-H460.
The subject of test [8] is A549.
Test [9] has as its system SNB-19.
Test [10] deals with NCI-H23.
Test [11] concerns COLO 205.
Test [12] deals with OVCAR-3.
Test [13] deals with LOX IMVI.
In test [14] the test system is HCT-116.
The subject of test [15] is UO-31.

As to `CCN(CC)c1c(C(=O)/C=C/c2ccc(F)cc2)c(-c2ccccc2)nn(C)c1=O`, the GI50 in [1] is 14.1 µM (inactive); in test [2] it was 2.9 µM (inactive); in [3], 6.89 µM (inactive); in test [4] it was 10.4 µM; in test [5] it was 4.85 µM (inactive); in test [6], 5.98 µM (inactive). Further, the GI50 is 4.49 µM (inactive) in test [7]; 8.69 µM (inactive) in [8]; 17 µM (inactive) in test [9]; 4.12 µM (inactive) in test [10]; 4.25 µM (inactive) in test [11]; 3.82 µM (inactive) in [12]. The GI50 in [13] was 7.35 µM (inactive); in test [14], 3.87 µM (inactive); in test [15], 11.3 µM (inactive).
On to `COC(OC)c1cccnc1C`, for which the GI50 in [1] is > 100 µM (inactive); in [2], > 100 µM (inactive); in test [3] it was > 100 µM (inactive); in test [4] it was more than 100 µM; in test [5], > 100 µM (inactive); in test [6] it was > 100 µM (inactive). In addition, the GI50 in test [7], in [8], in test [9], in test [10], in test [11] and in test [12] was > 100 µM (inactive) in each case. The GI50 in test [13], in test [14] and in test [15] was > 100 µM (inactive) in each case.
For the molecule `O=[N+]([O-])c1cccc(C(O)/C(=N/O)c2nc3ccc(Cl)cc3nc2O)c1` (stereo not drawn), the GI50 in test [1], in [2], in [3], in test [5], in test [7] and in test [8] was > 100 µM (inactive) throughout. Moreover, the GI50 in test [9], in test [10], in test [11], in test [12], in [13] and in test [14] was > 100 µM (inactive) in each case. Further, the GI50 in [15] is > 100 µM (inactive).
On to `COC(=O)/C(=N\O)C(C(=O)C=C(C)C)C(=O)C(=O)Nc1ccccc1C` (stereo not drawn), for which the GI50 in test [1] was > 100 µM (inactive); in [2] it was > 100 µM (inactive); in [3], > 100 µM (inactive); in test [4] it was more than 100 µM; in test [5], > 100 µM (inactive); in test [6] it was > 100 µM (inactive). Further, the GI50 in test [7], in test [8], in test [9], in test [10], in [11] and in test [12] was > 100 µM (inactive) in each case. For the same molecule, the GI50 in [13], in [14] and in [15] was > 100 µM (inactive) throughout.
As for `COc1cc(C(CC(OC)OC)=C(C#N)C#N)cc(OC)c1OC`, the GI50 in test [1] is 36.3 µM (inactive); in test [2], 19.5 µM (inactive); in [3] it was 18 µM (inactive); in test [4] it was 16.9 µM; in test [5], 18.7 µM (inactive); in [6], 13.3 µM (inactive). In addition, the GI50 in test [7] is 6.52 µM (inactive); in test [8] it was 28.8 µM (inactive); in test [9] it was 39.5 µM (inactive); in test [10] it was 28.1 µM (inactive); in [11], 9.35 µM (inactive); in test [12] it was 34.3 µM (inactive). Also, the values for the GI50 in [13], in [14] and in test [15] were 10.5 µM (inactive), 18.2 µM (inactive) and 28.1 µM (inactive), respectively.
